According to US11993785B2, “Immersion deposition methods and compositions for use in the same” (Wake Forest University Health Sciences, priority 2018, dated 2024):

System: primary sarcoma organoids
Assay: CELLTITER-GLO 3D ATP assay of drug treated primary sarcoma organoids
Format: cell-based
Details: 3 days, after 7 days organoid culture
Procedure: The organoids were made using an immersion printing technique using a gelatin composition having a gelatin concentration of 10 mg/mL. To prepare the gelatin composition, gelatin was allowed to completely dissolve, and then the composition was cooled at 4° C. prior to use. The organoids were printed with a new bioprinter, BIO X™ available from CELLINK®, using a new type of printhead, a syringe pump printhead.
The resulting organoids were cultured for 7 days, and then subjected to various drug conditions in culture for 3 more days. Table 1 details the drug and concentration added to the standard culture media (high glucose DMEM supplemented with 10% fetal bovine serum, 1% L-glutamine, 1% penicillin/streptomycin). The organoids were then measured for viability using the CELLTITER-GLO® 3D ATP assay to measure ATP content via luminescence. The resulting signals, shown in FIG. 5, show a trend of organoid viability decreasing as drug concentration increased. Live/dead imaging corroborates the findings of the ATP assay.

SMILES	AVG Signal (lum), ATP assay (1 nM drug in culture media) [lum]	AVG Signal (lum), ATP assay (100 nM drug in culture media) [lum]	AVG Signal (lum), ATP assay (10 μM drug in culture media) [lum]	AVG Signal (lum), ATP assay (5 μM drug in culture media) [lum]	AVG Signal (lum), ATP assay (50 μM drug in culture media) [lum]	AVG Signal (lum), ATP assay (500 μM drug in culture media) [lum]
COc1cccc2c1C(=O)c1c(O)c3c(c(O)c1C2=O)C[C@@](O)(C(=O)CO)C[C@@H]3O[C@H]1C[C@H](N)[C@H](O)[C@H](C)O1 [Doxorubicin]	5.13E+06	2.62E+06	1.12E+06	–	–	–
Cc1ccc(NC(=O)c2ccc(CN3CCN(C)CC3)cc2)cc1Nc1nccc(-c2cccnc2)n1 [Imatinib]	–	–	–	9.16E+06	6.56E+06	1.88E+04
